Results as given in PubChem BioAssay (NCI).
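48-hour exposure; five concentrations; linearly interpolated endpoints. At the TGI there is no net growth.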

Experiments:
Assay in all cases: NCI tumour cell line growth inhibition, 48 h
A498 renal = test system: A498 renal
A549 NSCLC = test system: A549 NSCLC
CAKI-1 renal = test system: CAKI-1 renal
CCRF-CEM leukemia = test system: CCRF-CEM leukemia
COLO 205 colon = test system: COLO 205 colon
DLD-1 colon = test system: DLD-1 colon
DMS 114 small cell lung = test system: DMS 114 small cell lung
DMS 273 small cell lung = test system: DMS 273 small cell lung
HCC-2998 colon = test system: HCC-2998 colon
HCT-116 colon = test system: HCT-116 colon
HCT-15 colon = test system: HCT-15 colon
HL-60(TB) leukemia = test system: HL-60(TB) leukemia
HOP-18 NSCLC = test system: HOP-18 NSCLC
HOP-62 NSCLC = test system: HOP-62 NSCLC
HOP-92 NSCLC = test system: HOP-92 NSCLC
HT29 colon = test system: HT29 colon
IGROV1 ovarian = test system: IGROV1 ovarian
K-562 leukemia = test system: K-562 leukemia
KM12 colon = test system: KM12 colon
KM20L2 colon = test system: KM20L2 colon
LOX IMVI melanoma = test system: LOX IMVI melanoma
M19-MEL melanoma = test system: M19-MEL melanoma
MALME-3M melanoma = test system: MALME-3M melanoma
MCF7 breast = test system: MCF7 breast
MOLT-4 leukemia = test system: MOLT-4 leukemia
NCI-H226 lung = test system: NCI-H226 lung
NCI-H23 lung = test system: NCI-H23 lung
NCI-H460 lung = test system: NCI-H460 lung
NCI-H522 lung = test system: NCI-H522 lung
NCI/ADR-RES ovarian = test system: NCI/ADR-RES ovarian
OVCAR-3 ovarian = test system: OVCAR-3 ovarian
OVCAR-4 ovarian = test system: OVCAR-4 ovarian
OVCAR-5 ovarian = test system: OVCAR-5 ovarian
OVCAR-8 ovarian = test system: OVCAR-8 ovarian
P388 leukemia = test system: P388 leukemia
P388/ADR leukemia = test system: P388/ADR leukemia
RPMI-8226 leukemia = test system: RPMI-8226 leukemia
RXF 393 renal = test system: RXF 393 renal
SF-268 CNS = test system: SF-268 CNS
SF-295 CNS = test system: SF-295 CNS
SF-539 CNS = test system: SF-539 CNS
SK-MEL-2 melanoma = test system: SK-MEL-2 melanoma
SK-MEL-28 melanoma = test system: SK-MEL-28 melanoma
SK-MEL-5 melanoma = test system: SK-MEL-5 melanoma
SK-OV-3 ovarian = test system: SK-OV-3 ovarian
SN12C renal = test system: SN12C renal
SN12K1 renal = test system: SN12K1 renal
SNB-19 CNS = test system: SNB-19 CNS
SNB-75 CNS = test system: SNB-75 CNS
SNB-78 CNS = test system: SNB-78 CNS
SW-620 colon = test system: SW-620 colon
U251 CNS = test system: U251 CNS
UACC-257 melanoma = test system: UACC-257 melanoma
UACC-62 melanoma = test system: UACC-62 melanoma
UO-31 renal = test system: UO-31 renal
XF 498 CNS = test system: XF 498 CNS

**Q.** Which results are given for C=C1C[C@@H](O)C[C@@]2(C)C[C@@H]3OC(=O)C(=C)[C@@H]3C[C@H]12?
**A.** TGI (A498 renal): 36.8 µM; TGI (A549 NSCLC): 81 µM; TGI (CAKI-1 renal): 14.1 µM; TGI (CCRF-CEM leukemia): > 36.1 µM; TGI (COLO 205 colon): 3.02 µM; TGI (DLD-1 colon): > 36.6 µM; TGI (DMS 114 small cell lung): 23.5 µM; TGI (DMS 273 small cell lung): 20.5 µM; TGI (HCC-2998 colon): 14.2 µM; TGI (HCT-116 colon): 11.9 µM; TGI (HCT-15 colon): 18.2 µM; TGI (HL-60(TB) leukemia): 5.94 µM; TGI (HOP-18 NSCLC): 15.9 µM; TGI (HOP-62 NSCLC): 53.4 µM; TGI (HOP-92 NSCLC): 28.1 µM; TGI (HT29 colon): 10.8 µM; TGI (IGROV1 ovarian): 28.8 µM; TGI (K-562 leukemia): > 100 µM; TGI (KM12 colon): 28.6 µM; TGI (KM20L2 colon): 25.4 µM; TGI (LOX IMVI melanoma): 21.5 µM; TGI (M19-MEL melanoma): > 100 µM; TGI (MALME-3M melanoma): 13.4 µM; TGI (MCF7 breast): 24.8 µM; TGI (MOLT-4 leukemia): 16.1 µM; TGI (NCI-H226 lung): 37.7 µM; TGI (NCI-H23 lung): 35.4 µM; TGI (NCI-H460 lung): > 58.6 µM; TGI (NCI-H522 lung): 21.6 µM; TGI (NCI/ADR-RES ovarian): 28.4 µM; TGI (OVCAR-3 ovarian): 35.2 µM; TGI (OVCAR-4 ovarian): 31.4 µM; TGI (OVCAR-5 ovarian): 28 µM; TGI (OVCAR-8 ovarian): 46.6 µM; TGI (P388 leukemia): 8.87 µM; TGI (P388/ADR leukemia): 31.8 µM; TGI (RPMI-8226 leukemia): 34.5 µM; TGI (RXF 393 renal): 20.3 µM; TGI (SF-268 CNS): 14.4 µM; TGI (SF-295 CNS): 54.6 µM; TGI (SF-539 CNS): 23.1 µM; TGI (SK-MEL-2 melanoma): 39.3 µM; TGI (SK-MEL-28 melanoma): 14 µM; TGI (SK-MEL-5 melanoma): 11.7 µM; TGI (SK-OV-3 ovarian): > 81.9 µM; TGI (SN12C renal): 19.6 µM; TGI (SN12K1 renal): 35.7 µM; TGI (SNB-19 CNS): 26.4 µM; TGI (SNB-75 CNS): > 35.5 µM; TGI (SNB-78 CNS): 37.3 µM; TGI (SW-620 colon): 18.1 µM; TGI (U251 CNS): 39.9 µM; TGI (UACC-257 melanoma): 15.9 µM; TGI (UACC-62 melanoma): 21 µM; TGI (UO-31 renal): 31.2 µM; TGI (XF 498 CNS): 4.71 µM
